For one assay, the system named is DLD-1 cells. Kind of assay: treatment duration, single dose of SN38 or 3E10-SN38 conjugates, cancer cell growth (Example 7). The format is cell-based. The settings on record: effects dose dependent. An excerpt:
FIGS. 14, 15, and 16 show the cell viability of WT and BRCA2^−/− DLD-1 cells after treatment with SN38, cWT-SN38 or cD31N-SN38 at 3, 5, and 7 days post-treatment, respectively.
FIGS. 14A, 15A, and 16A show the viability of WT DLD-1 cells and FIGS. 14B, 15B, and 16B show the viability of BRCA2^−/−- DLD-1 cells. The calculated EC50 values are provided.
FIGS. 17 and 18 show the effects of shorter and longer term treatment on cell viability in WT DLD-1 cells (FIGS. 17A and 17B) and BRCA2^−/−- DLD-1 cells (FIGS. 18A and 18B) at day 7 after treatment with SN38 or cD31N-SN38 conjugate. Shorter term treatment was defined as a 24 hour treatment followed by a change to fresh treatment-free media. Longer term treatment was defined as 7 days of treatment without a change of medium. The calculated EC50 values are provided.

The test system of assay [1] is WT DLD-1 colorectal adenocarcinoma cells. Kind of assay: Cell viability assay in WT DLD-1 cells. Type of assay: cell-based, human. An excerpt:
(§1) Cancer cell lines were acquired from ATCC and cultured according to well known methods in the art. Treatment with cytotoxic agents, antibodies, or ADCs refers to the addition of the cytotoxic agent, antibody or ADC (i.e., DM1 or cD31N-DM1, etc.) to the culture media for a set duration.
BRCA2 deficient (BRCA2′) cells are more sensitive to DM1 because BRCA2 participates in DNA double-stranded break (DSB) repair.
The viability assay protocol is set forth in Example 3.

Assay [2] has as its system PEO-4 (WT) ovarian adenocarcinoma cells. Kind of assay: Cell viability of PEO-4 cells. The format is cell-based. The settings on record: PEO-4 (WT) cells, at 7 days.
Excerpt: as §1
(§2) The effects of longer-term treatment with SN38 and cD31N-SN38 on PEO-4 (WT) and PEO-1 (BRCA2^−/−) ovarian cancer cells were investigated.

The test system of assay [3] is PEO-1 (BRCA2^−/−) ovarian adenocarcinoma cells. Kind of assay: Cell viability of PEO-1 cells. The format is cell-based. The settings on record: PEO-1 (BRCA2-/-) cells, at 7 days.
Excerpt: as §1, §2

The test system of assay [4] is WT DLD-1 cells. Kind of assay: Single 24 hour treatment, long-term viability of WT DLD-1 cells. Type of assay: cell-based, human. Particulars: WT DLD-1, 24 hour treatment, days 3, 5 and 7. On the procedure: (§3) The effects of treatment with the SN38 or 3E10-SN38 conjugates on the colorectal cancer DLD-1 cell line were investigated. WT and BRCA2^−/− deficient DLD-1 cells were tested. FIG. 13 provides the study protocol and timeline. Each well of a 96-well plate was loaded with 1000 DLD-1 cells. 24 hours post-plating, cells were treated with different concentrations of cWT-SN38 conjugate, cD31N-SN38 conjugate, or SN38 for 24 hours. After treatment, the media was replaced with fresh treatment-free media and was not changed again. Cell viability and half maximal effective concentration (EC50) were tracked every 48 hours post-treatment on days 3, 5, and 7. Half maximal effective concentration (EC50) is a measure of the concentration of a drug, antibody or toxicant which induces a response halfway between the baseline and maximum after a specified exposure time.

Assay [5] deals with BRCA2^−/− DLD-1 cells. Kind of assay: Single 24 hour treatment, long-term viability of BRCA2-/- DLD-1 cells. Type of assay: cell-based, human. Particulars: BRCA2-/- DLD-1, 24 hour treatment, days 3, 5 and 7. On the procedure: as §3
Assay [6] concerns WT DLD-1 cells. Kind of assay: Clonogenic assay in WT DLD-1 cells. The format is cell-based, human. Particulars: WT DLD-1, after 7 days. As to the method:
(§4) Clonogenic or colony formation assays are in vitro assays that can measure the survival or growth of cells on a single-cell level based on the ability of a single cell to grow into a colony. WT or BRCA2^−/− DLD-1 cells were plated with different concentrations of SN38, 3E10 antibody, or 3E10-SN38 conjugate added into the clonogenic assay media. After 7 days for WT cells or 10 days for BRCA2^−/− cells, colony numbers were counted to quantify DLD-1 cell survival. […] Consistent with earlier results, DLD-1 cell survival was concentration-dependent.

Assay [7] has as its system BRCA2^−/− DLD-1 cells. Kind of assay: Clonogenic assay in BRCA2-/- DLD-1 cells. Type of assay: cell-based, human. Particulars: BRCA2-/- DLD-1, after 10 days. As to the method: as §4
Another assay relates to HCT116- IDH1^mut cells. Kind of assay: Cell viability of HCT116-IDH1mut cells. The format is cell-based. As to the method:
WT and mutant IDH1 (IDH1^mut) HCT116 cells were treated with different concentrations of SN38, cD31N antibody, or cD31N-SN38 conjugate. The effects of 3E10-cD31N-SN38 conjugate treatment on HCT116 WT and HCT116IDH1^mut were investigated.

The next assay relates to WT HCT116 cells. Kind of assay: Clonogenic assay in WT HCT116 cells. The format is cell-based. On the procedure: as §4
The effects of treatment with SN38 or 3E10-SN38 conjugates on HCT116 cells were tested in clonogenic assays as previously described. WT and IDH1^mut HCT116 cells were treated with SN38, cD31N antibody, or cD31N-SN38 conjugate. Cell survival of WT (FIG. 25A) and IDH1^mut HCT116 cells (FIG. 25B) was quantified after 7 days for WT cells or 10 days for […].

The subject of assay [8] is DNA damage response proteins such as γH2AX, p-ATM, and p-ATR. Kind of assay: Western blot of DNA damage response proteins in WT HCT116 cells. The format is cell-based. The settings on record: WT HCT116, 100 nM, 24 hours. As to the method:
DNA damage induced by SN38 or the humanized 3E10-SN38 conjugates in WT and IDH1^mut HCT116 cells was assessed by measuring the levels of proteins involved in DNA damage response, p-ATM, p-ATR, pChk2, pChk1, 7H2AX and H2AX. HCT116 cells were treated with 100 nM of SN38, V66 antibody, or V66-SN38 conjugate and collected for Western blot after 24 hours and the results are shown in FIG. 26. No treatment (NT) was used as control.
(A western blot detects proteins with antibodies after separation by electrophoresis.)

In assay [9] the test system is DNA damage response proteins. Kind of assay: Western blot of DNA damage response proteins in PEO-4 cells. The format is cell-based. The settings on record: 100 nM, 24 and 48 hours. As to the method:
(§5) PEO-4 (WT) and PEO-1 (BRCA2^−/−) ovarian cancer cells were treated with 100 nM of SN38, cD31N or cD31N-SN38 and collected at 24 and 48 hours of treatment for Western blot analysis to measure specific protein markers of DNA damage response as previously described.

Assay [10] has as its system DNA damage response proteins. Kind of assay: Western blot of DNA damage response proteins in PEO-1 cells. Particulars: 100 nM, 24 and 48 hours. The format is cell-based. As to the method:
as §5

This is an account of results in patent US20260207769A1, “ANTIBODY DRUG CONJUGATES” (YALE UNIVERSITY, priority 2022, published 2026).

For orientation: EC50 means the concentration needed to bring the measured effect to its halfway point. Low values mean a more potent agent, high ones a less potent agent. Turning to `CCc1c2c(nc3ccc(O)cc13)-c1cc3c(c(=O)n1C2)COC(=O)[C@]3(O)CC` [SN38, SN-38], the “long-term effects on cancer cell growth” value in the assay with DLD-1 cells is given as “can have long-term effects on cancer cell growth”. This molecule showed an EC50 in assay [1] of 6.26 nM. Further, the cell viability result in assay [2] is given as “reduced cell viability in a concentration-dependent manner resulting in low EC50 values”; in [3] it was “reduced cell viability in a concentration-dependent manner resulting in low EC50 values”; in the assay with HCT116- IDH1^mut cells (5 days of treatment), “substantial loss in cell viability”; with HCT116- IDH1^mut cells (7 days of treatment), “substantial loss in cell viability”. Besides, the “EC50 values compared between treatments” value in the assay on WT DLD-1 cells [4] and in the assay on BRCA2^−/− DLD-1 cells [5] was “lower EC50 value than both 3E10-SN38 conjugates” throughout. Also, the “cell survival (colony numbers)” value with WT DLD-1 cells [6] and with BRCA2^−/− DLD-1 cells [7] was “reduced cell survival” each time. In addition, the survival fraction with WT HCT116 cells (1 nM) turned out to be 0%. Moreover, in the assay with WT HCT116 cells (after 7 days), the “cell survival (clonogenic)” value is “low levels of cell survival in a concentration-dependent manner”. Further, in [8], the “protein levels of DNA damage response proteins” value is “increased the protein levels of DNA damage response proteins such as γH2AX, p-ATM, and p-ATR”. The “protein expression of DNA damage response proteins” value in [9] and in assay [10] was “protein expression of DNA damage response proteins was increased” each time.
